Experimental data reported in ChEMBL document CHEMBL5325395, “Design, synthesis and anti-ovarian cancer activities of thieno[2,3-d]pyrimidine based chimeric BRD4 inhibitor/nitric oxide-donator” (Eur J Med Chem, 2023).
Calls of active or inactive are those of the source. The calls are words filed in the database; no cut-off is given here.

What was measured:
SK-OV-3 [1] = assay: Induction of autophagy in human SK-OV-3 cells assessed as reduction in cell viability at 100 nmol/L incubated for 24 hrs by CCK8 assay; format: functional, cell-based
[2] = biological target: Bromodomain-containing protein 4 (Homo sapiens, UniProt O60885); assay: Inhibition of BRD4 (unknown origin)
SK-OV-3 [3] = assay: Antiproliferative activity against human SK-OV-3 cells assessed as reduction in cell viability incubated for 24 hrs by CCK8 assay; format: functional, cell-based; details: SK-OV-3, 24 h
OVCAR-3 = assay: Antiproliferative activity against human OVCAR-3 cells assessed as reduction in cell viability incubated for 24 hrs by CCK8 assay; format: functional, cell-based; details: OVCAR-3, 24 h
SW626 = assay: Antiproliferative activity against human SW626 cells assessed as reduction in cell viability incubated for 24 hrs by CCK8 assay; format: functional, cell-based; details: SW626, 24 h
ES-2 = assay: Antiproliferative activity against human ES2 cells assessed as reduction in cell viability incubated for 24 hrs by CCK8 assay; format: functional, cell-based; details: ES-2, 24 h
A2780 = assay: Antiproliferative activity against human A2780 cells assessed as reduction in cell viability incubated for 24 hrs by CCK8 assay; format: functional, cell-based; details: A2780, 24 h
[4] = Induction of NO release in phosphate buffer at 0.5 hrs by Griess reagent based spectrophotometer analysis; format: functional
[5] = Induction of NO release in phosphate buffer at 1 hr by Griess reagent based spectrophotometer analysis; format: functional
[6] = Induction of NO release in phosphate buffer at 2 hrs by Griess reagent based spectrophotometer analysis; format: functional
[7] = Induction of NO release in phosphate buffer at 3 hrs by Griess reagent based spectrophotometer analysis; format: functional
[8] = Induction of NO release in phosphate buffer at 4 hrs by Griess reagent based spectrophotometer analysis; format: functional
[9] = Induction of NO release in phosphate buffer at 6 hrs by Griess reagent based spectrophotometer analysis; format: functional
[10] = Induction of NO release in phosphate buffer at 24 hrs by Griess reagent based spectrophotometer analysis; format: functional
Mus musculus = assay: In vivo inhibition of BRD4 in BALB/c nude mouse xenografted with human SK-OV-3 cells assessed as reduction in c-Myc expression at 30 mg/kg, ip administered for 19 days by immunohistochemical analysis; format: functional, organism-based; details: time 19.0 day
SK-OV-3 [11] = assay: Induction of autophagy in human SK-OV-3 cells assessed as reduction in cell viability at 1 mmol/L incubated for 24 hrs by CCK8 assay; format: functional, cell-based

| SMILES | Activity (SK-OV-3 [1]) | IC50 [2] [µM] | IC50 (SK-OV-3 [3]) [µM] | IC50 (OVCAR-3) [µM] | IC50 (SW626) [µM] | IC50 (ES-2) [µM] | IC50 (A2780) [µM] | Activity [4] [µmol/L] | Activity [5] [µmol/L] | Activity [6] [µmol/L] | Activity [7] [µmol/L] | Activity [8] [µmol/L] | Activity [9] [µmol/L] | Activity [10] [µmol/L] | inhibition (Mus musculus) | Activity (SK-OV-3 [11]) |
| --- | --- | --- | --- | --- | --- | --- | --- | --- | --- | --- | --- | --- | --- | --- | --- | --- |
| CO/C1=C\C(C)=C\[C@@H](C)[C@@H](O)[C@@H](C)C/C(C)=C/C=C/[C@H](OC)[C@@H]([C@@H](C)[C@@H](O)[C@H](C)[C@@]2(O)C[C@@H](O)[C@H](C)[C@@H](C(C)C)O2)OC1=O | inactive | – | – | – | – | – | – | – | – | – | – | – | – | – | – | – |
| Cc1cc(-c2nc3sc4c(c3c(=O)[nH]2)CCN(C)C4)cc(C)c1OCCCCCC(=O)OCc1c(-c2ccccc2)no[n+]1[O-] | – | 1.34 | 1.69 | 5.42 | 12.5 | 12.8 | 9.73 | 0.063 | 0.068 | 0.068 | 0.056 | 0.066 | 0.117 | 0.249 | – | – |
| Cc1cc(-c2nc3sc4c(c3c(=O)[nH]2)CCN(C)C4)cc(C)c1OCCCCCCOC(=O)c1no[n+]([O-])c1C | – | 2.36 | 6.33 | 7.04 | 12.1 | 4.69 | 13.1 | 0.022 | 0.027 | 0.028 | 0.026 | 0.036 | 0.044 | 0.154 | – | – |
| COc1cc(OC)c2c(=O)[nH]c(-c3cc(C)c(OCCO)c(C)c3)nc2c1 [APABETALONE] | – | – | 7.05 | 16.9 | 8.45 | 8.01 | 123 | – | – | – | – | – | – | – | – | – |
| Cc1cc(-c2nc3sc4c(c3c(=O)[nH]2)CCN(C)C4)cc(C)c1O | – | – | – | – | – | – | – | – | – | – | – | – | – | – | Active | – |
| CCOC(=O)N1CCN(/[N+]([O-])=N/Oc2ccc([N+](=O)[O-])cc2[N+](=O)[O-])CC1 | – | – | 18.5 | > 20 | > 20 | > 20 | > 20 | – | – | – | – | – | – | – | – | – |
| Cn1cnc(N)c2ncnc1-2 | – | – | – | – | – | – | – | – | – | – | – | – | – | – | – | Active |
| Cc1cc(-c2nc3sc4c(c3c(=O)[nH]2)CCN(C)C4)cc(C)c1OCC(=O)OCc1no[n+]([O-])c1C | – | 1.21 | 1.62 | 3.73 | 9.85 | 8.86 | 5.39 | 0.028 | 0.04 | 0.025 | 0.033 | 0.037 | 0.042 | 0.169 | – | – |
| Cc1cc(-c2nc3sc4c(c3c(=O)[nH]2)CCN(C)C4)cc(C)c1OCCCCO[N+](=O)[O-] | – | 1.89 | 16.9 | 15.3 | 16.6 | 16.3 | 16.9 | 0.03 | 0.05 | 0.037 | 0.05 | 0.052 | 0.065 | 0.173 | – | – |
| Cc1cc(-c2nc3sc4c(c3c(=O)[nH]2)CCN(C)C4)cc(C)c1OCCCCCC(=O)OCc1no[n+]([O-])c1C | – | 1.97 | 12 | 6.89 | 5.79 | 4.63 | 6.97 | 0.02 | 0.03 | 0.033 | 0.036 | 0.04 | 0.044 | 0.154 | – | – |
| Cc1cc(-c2nc3sc4c(c3c(=O)[nH]2)CCN(C)C4)cc(C)c1OCCCC(=O)OCc1c(-c2ccccc2)no[n+]1[O-] | – | 1.71 | 3.18 | 13.8 | 7.65 | 19 | 7.31 | 0.063 | 0.068 | 0.068 | 0.056 | 0.066 | 0.117 | 0.249 | – | – |
| Cc1cc(-c2nc3sc4c(c3c(=O)[nH]2)CCN(C)C4)cc(C)c1OCCCCCCO[N+](=O)[O-] | – | 2.25 | 3.87 | 17.9 | 17 | 15.8 | 14.2 | 0.029 | 0.038 | 0.03 | 0.03 | 0.036 | 0.037 | 0.166 | – | – |
| Cc1cc(-c2nc3sc4c(c3c(=O)[nH]2)CCN(C)C4)cc(C)c1OCCCC(=O)OCc1no[n+]([O-])c1C | – | 2.26 | 7.93 | 5.44 | 13.4 | 14.4 | 17.3 | 0.023 | 0.029 | 0.03 | 0.027 | 0.035 | 0.036 | 0.149 | – | – |
